# Assay results reported in ChEMBL document CHEMBL6103641, “Palladium-Catalyzed Late-Stage Functionalization of Natural Antitumor Drug: Synthesis and Bioactivity of 5-Aryl Camptothecins” (J Nat Prod, 2025).
# pIC50: −log10 of the molar value. Active and inactive are the calls of the source. No cut-off for these calls is given here.
# Key:
# HCT-116 [1] = test: Cytotoxicity against human HCT-116 cells assessed as inhibition of cell viability incubated for 24 hrs by MTT assay; format: functional, cell-based; settings: HCT-116, 24 h
# MCF7 [2] = test: Cytotoxicity against human MCF7 cells assessed as inhibition of cell viability incubated for 24 hrs by MTT assay; format: functional, cell-based; settings: MCF7, 24 h
# A549 = test: Cytotoxicity against human A549 cells assessed as inhibition of cell viability incubated for 24 hrs by MTT assay; format: functional, cell-based; settings: A549, 24 h
# MCF7 [3] = test: Antiproliferative activity against human MCF7 cells assessed as inhibition of colony growth incubated for 24 hrs by crystal violet staining based analysis; format: functional, cell-based; settings: dose 0.25-2 µM
# MCF7 [4] = test: Induction of apoptosis in human MCF7 cells at 2 uM incubated for 24 hrs by Annexin V-FITC/PI staining based flow cytometric analysis; format: functional, cell-based
# MCF7 [5] = test: Induction of cell cycle arrest in human MCF7 cells assessed as accumulation at G2/M phase at 0.25 to 2 uM incubated for 24 hrs by PI staining based flow cytometry; format: functional; settings: dose 0.25-2 µM
# MCF7 [6] = test: Antiproliferative activity against human MCF7 cells assessed as inhibition of colony growth at 2 uM incubated for 24 hrs by crystal violet staining based analysis; format: functional, cell-based
# HCT-116 [7] = test: Antiproliferative activity against human HCT-116 cells assessed as inhibition of colony growth incubated for 24 hrs by crystal violet staining based analysis; format: functional, cell-based; settings: dose 0.25-2 µM
# HCT-116 [8] = test: Induction of apoptosis in human HCT-116 cells at 2 uM incubated for 24 hrs by Annexin V-FITC/PI staining based flow cytometric analysis; format: functional, cell-based
# HCT-116 [9] = test: Induction of apoptosis in human HCT-116 cells assessed as upregulation of cleaved caspase-3 expression at 0.25 to 2 uM incubated for 24 hrs by western blot analysis; format: functional, cell-based; settings: dose 0.25-2 µM
# HCT-116 [10] = test: Induction of apoptosis in human HCT-116 cells assessed as upregulation of Bax expression at 0.25 to 2 uM incubated for 24 hrs by western blot analysis; format: functional, cell-based; settings: dose 0.25-2 µM
# HCT-116 [11] = test: Induction of apoptosis in human HCT-116 cells assessed as downregulation of Bcl-2 expression at 0.25 to 2 uM incubated for 24 hrs by western blot analysis; format: functional, cell-based; settings: dose 0.25-2 µM
# HCT-116 [12] = test: Induction of cell cycle arrest in human HCT-116 cells assessed as accumulation at G2/M phase at 0.25 to 2 uM incubated for 24 hrs by PI staining based flow cytometry; format: functional; settings: dose 0.25-2 µM
# HCT-116 [13] = test: Antiproliferative activity against human HCT-116 cells assessed as inhibition of colony growth at 2 uM incubated for 24 hrs by crystal violet staining based analysis; format: functional, cell-based
Structure (SMILES),pIC50 (HCT-116 [1]),pIC50 (MCF7 [2]),pIC50 (A549),further results
CC[C@@]1(O)C(=O)OCc2c1cc1n(c2=O)[C@H](c2ccc(C(C)(C)C)cc2)c2cc3ccccc3nc2-1,6.70,< 5.00,< 5.00,
CC[C@@]1(O)C(=O)OCc2c1cc1n(c2=O)[C@H](CC=C(C)C)c2cc3ccccc3nc2-1,6.22,7.00,5.92,
CC[C@@]1(O)C(=O)OCc2c1cc1n(c2=O)[C@@H](c2ccccc2Cl)c2cc3ccccc3nc2-1,< 5.00,7.00,< 5.00,
C=CC[C@H]1c2cc3ccccc3nc2-c2cc3c(c(=O)n21)COC(=O)[C@]3(O)CC,6.40,< 5.00,< 5.00,
CC[C@@]1(O)C(=O)OCc2c1cc1n(c2=O)[C@H](c2ccc3c(c2)OCO3)c2cc3ccccc3nc2-1,7.30,< 5.00,7.00,
CC[C@@]1(O)C(=O)OCc2c1cc1n(c2=O)[C@H](c2cccc(OC)c2)c2cc3ccccc3nc2-1,< 5.00,< 5.00,6.70,
CC[C@@]1(O)C(=O)OCc2c1cc1n(c2=O)[C@H](c2cccc(F)c2C)c2cc3ccccc3nc2-1,4.98,< 5.00,8.00,
CC[C@@]1(O)C(=O)OCc2c1cc1n(c2=O)[C@H](c2cccc(C(F)(F)F)c2)c2cc3ccccc3nc2-1,5.92,7.15,< 5.00,
CC[C@@]1(O)C(=O)OCc2c1cc1n(c2=O)[C@H](c2ccc3ccccc3c2)c2cc3ccccc3nc2-1,< 5.00,< 5.00,6.15,
CCOC(=O)/C=C/C[C@H]1c2cc3ccccc3nc2-c2cc3c(c(=O)n21)COC(=O)[C@]3(O)CC,6.40,< 5.00,8.00,
CCOc1ccc([C@H]2c3cc4ccccc4nc3-c3cc4c(c(=O)n32)COC(=O)[C@]4(O)CC)cc1,< 5.00,< 5.00,7.00,
C=Cc1ccc([C@H]2c3cc4ccccc4nc3-c3cc4c(c(=O)n32)COC(=O)[C@]4(O)CC)cc1,6.10,6.22,< 5.00,
CC[C@@]1(O)C(=O)OCc2c1cc1n(c2=O)[C@@H](c2cccc(C(F)(F)F)c2)c2cc3ccccc3nc2-1,< 5.00,< 5.00,< 5.00,
CC[C@@]1(O)C(=O)OCc2c1cc1n(c2=O)[C@H](c2ccccc2Cl)c2cc3ccccc3nc2-1,< 5.00,6.22,< 5.00,
CC[C@@]1(O)C(=O)OCc2c1cc1n(c2=O)[C@H](c2ccc(Cl)cc2)c2cc3ccccc3nc2-1,6.22,< 5.00,< 5.00,
CC[C@@]1(O)C(=O)OCc2c1cc1n(c2=O)[C@H](c2cc(C)cc(C)c2)c2cc3ccccc3nc2-1,< 5.00,7.40,< 5.00,Activity (MCF7 [3]): Dose-dependent-effect; Activity (MCF7 [4]): Active; Superior Activity Compared To Camptothecin Observed; Activity (MCF7 [5]): Active; Activity (MCF7 [6]): Active; Superior Activity Compared To Camptothecin Observed
CCOc1ccc([C@@H]2c3cc4ccccc4nc3-c3cc4c(c(=O)n32)COC(=O)[C@]4(O)CC)cc1,< 5.00,< 5.00,7.00,
CC[C@@]1(O)C(=O)OCc2c1cc1n(c2=O)[C@@H](c2ccc(-c3cccc4ccccc34)cc2)c2cc3ccccc3nc2-1,< 5.00,< 5.00,< 5.00,
CC[C@@]1(O)C(=O)OCc2c1cc1n(c2=O)[C@@H](c2ccc3c(c2)OCO3)c2cc3ccccc3nc2-1,< 5.00,< 5.00,6.30,
CC[C@@]1(O)C(=O)OCc2c1cc1n(c2=O)[C@@H](c2c(OC)cccc2OC)c2cc3ccccc3nc2-1,7.30,6.40,< 5.00,Activity (HCT-116 [7]): Dose-dependent-effect; Activity (HCT-116 [8]): Active; Superior Activity Compared To Camptothecin Observed; Activity (HCT-116 [9]): Active; Activity (HCT-116 [10]): Active; Activity (HCT-116 [11]): Active; Activity (HCT-116 [12]): Active; Activity (HCT-116 [13]): Active; Superior Activity Compared To Camptothecin Observed
CC[C@@]1(O)C(=O)OCc2c1cc1n(c2=O)[C@H](c2c(OC)cccc2OC)c2cc3ccccc3nc2-1,< 5.00,6.40,< 5.00,
CC[C@@]1(O)C(=O)OCc2c1cc1n(c2=O)[C@H](c2c(C)cccc2C)c2cc3ccccc3nc2-1,6.52,< 5.00,< 5.00,
CC[C@@]1(O)C(=O)OCc2c1cc1n(c2=O)[C@@H](c2cccc(-c3ccccc3)c2)c2cc3ccccc3nc2-1,< 5.00,< 5.00,5.05,

Structure (SMILES),pIC50 (HCT-116 [1]),pIC50 (MCF7 [2]),pIC50 (A549),further results
CC[C@@]1(O)C(=O)OCc2c1cc1n(c2=O)[C@@H](c2cccc(F)c2C)c2cc3ccccc3nc2-1,6.05,< 5.00,8.00,
CC[C@@]1(O)C(=O)OCc2c1cc1n(c2=O)[C@@H](c2ccccc2F)c2cc3ccccc3nc2-1,< 5.00,< 5.00,7.40,
CC[C@@]1(O)C(=O)OCc2c1cc1n(c2=O)[C@@H](c2ccccc2C)c2cc3ccccc3nc2-1,6.70,< 5.00,< 5.00,
CC[C@@]1(O)C(=O)OCc2c1cc1n(c2=O)[C@H](c2ccccc2C)c2cc3ccccc3nc2-1,6.70,< 5.00,< 5.00,
C=Cc1ccc([C@@H]2c3cc4ccccc4nc3-c3cc4c(c(=O)n32)COC(=O)[C@]4(O)CC)cc1,6.05,7.00,< 5.00,
CC[C@@]1(O)C(=O)OCc2c1cc1n(c2=O)[C@@H](c2cc(C)cc(C)c2)c2cc3ccccc3nc2-1,< 5.00,6.80,< 5.00,
CC[C@@]1(O)C(=O)OCc2c1cc1n(c2=O)[C@H](c2ccccc2C(C)C)c2cc3ccccc3nc2-1,7.00,5.04,8.00,
CC[C@@]1(O)C(=O)OCc2c1cc1n(c2=O)[C@@H](c2cccc(OC)c2)c2cc3ccccc3nc2-1,< 5.00,< 5.00,5.96,
CC[C@@]1(O)C(=O)OCc2c1cc1n(c2=O)[C@H](c2ccc3c(c2)OCCO3)c2cc3ccccc3nc2-1,7.10,< 5.00,7.00,
CC[C@@]1(O)C(=O)OCc2c1cc1n(c2=O)[C@@H](c2ccc(Cl)cc2)c2cc3ccccc3nc2-1,< 5.00,< 5.00,< 5.00,
CC[C@@]1(O)C(=O)OCc2c1cc1n(c2=O)[C@@H](c2ccc(F)cc2)c2cc3ccccc3nc2-1,< 5.00,7.00,< 5.00,
CC[C@@]1(O)C(=O)OCc2c1cc1n(c2=O)Cc2cc3ccccc3nc2-1 [CAMPTOTHECIN],6.52,6.05,6.52,
C=CC[C@@H]1c2cc3ccccc3nc2-c2cc3c(c(=O)n21)COC(=O)[C@]3(O)CC,6.52,6.05,< 5.00,
CCc1ccc(-c2ccc([C@@H]3c4cc5ccccc5nc4-c4cc5c(c(=O)n43)COC(=O)[C@]5(O)CC)cc2)cc1,6.70,< 5.00,6.10,
CC[C@@]1(O)C(=O)OCc2c1cc1n(c2=O)[C@H](c2cccc(CBr)c2)c2cc3ccccc3nc2-1,5.03,< 5.00,5.96,
CC[C@@]1(O)C(=O)OCc2c1cc1n(c2=O)[C@H](c2ccc(F)cc2)c2cc3ccccc3nc2-1,< 5.00,7.00,6.40,
CC[C@@]1(O)C(=O)OCc2c1cc1n(c2=O)[C@H](c2cccc(-c3ccccc3)c2)c2cc3ccccc3nc2-1,< 5.00,< 5.00,6.05,
CC[C@@]1(O)C(=O)OCc2c1cc1n(c2=O)[C@@H](c2c(C)cccc2C)c2cc3ccccc3nc2-1,5.96,< 5.00,< 5.00,
CCOC(=O)/C=C/C[C@@H]1c2cc3ccccc3nc2-c2cc3c(c(=O)n21)COC(=O)[C@]3(O)CC,6.52,6.40,8.00,
CC[C@@]1(O)C(=O)OCc2c1cc1n(c2=O)[C@H](c2ccccc2F)c2cc3ccccc3nc2-1,6.30,< 5.00,8.00,
CC[C@@]1(O)C(=O)OCc2c1cc1n(c2=O)[C@@H](CC=C(C)C)c2cc3ccccc3nc2-1,6.30,7.22,7.70,
CC[C@@]1(O)C(=O)OCc2c1cc1n(c2=O)[C@H](c2ccc(-c3cccc4ccccc34)cc2)c2cc3ccccc3nc2-1,6.15,5.96,< 5.00,
CC[C@@]1(O)C(=O)OCc2c1cc1n(c2=O)[C@@H](c2ccccc2C(C)C)c2cc3ccccc3nc2-1,6.22,< 5.00,8.00,
